Our source for the EC50 values is patent US10844077B2, “Thiazolyl-containing compounds for treating proliferative diseases” (Dana-Farber Cancer Institute, Inc., priority 2014, dated 2020).

Experiment in all cases: CellTiter-Glo Luminescent cell viability assay
Holding throughout (format): cell-based
Holding throughout (settings): cell survival, 72 hours
In general terms: ATP-based viability assays read luminescence as a measure of living cells.

In one assay the test system is BCWM.1. As to the method:
(§1) The inhibitory activities of exemplary compounds described herein against select protein kinases and cells were determined. Cell survival following treatment of exemplary compounds described herein was assessed by CellTiter-Glo® Luminescent cell viability assay (Promega). The cells were seeded into 384 well plates with the EL406 Combination Washer Dispenser (BioTek Instruments, Inc.), and a series diluted exemplary compounds (20˜0.0006 μM) were injected into the culture media with the JANUS Automated Workstation (PerkinElmer Inc.). The cells were treated for 72 hours at 37° C. with 5% CO2. Luminescent measurement is performed using the 2104 Envision® Multilabel Reader (PerkinElmer Inc.). EC50 values were calculated with […] PRISM software.

The next assay has as its system MWCL-1. The protocol: as §1
For the next assay, the system named is OCI-Ly19. As to the method: as §1
The test system of another assay is Ramos. The protocol:
as §1

For a further assay, the system named is TMD-8. As to the method:
as §1

In the case of `C=CC(=O)N1CCC(Cn2ccc(Nc3ncc(C(=O)Nc4c(C)cccc4Cl)s3)n2)C1` (centres unmarked) [II-1], the EC50 (as a rule, the concentration that produces a half-maximal response) was 84 nM in the assay with BCWM.1; 121 nM in the assay on MWCL-1; 7880 nM in the assay with OCI-Ly19; more than 20000 nM in the assay with Ramos; 573 nM in the assay with TMD-8.
